Usually IC50 stands for the concentration at which inhibition is half-maximal. One may read the AC50 as the concentration giving half of the maximal activity seen. A word on the EC50: it is the concentration giving half of the maximal effect. A word on the CC50: it is the concentration that lowers cell viability or growth by half.

Values joined by “and” are separate entries in the source; they are usually repeats but may differ in a detail not shown here. Identical values can stand only once. Active and inactive are the calls of the source.

The values below come from ChEMBL document CHEMBL1201862, “PubChem BioAssay data set” (2004).

Series [1] deals with T1, Voltage-gated N-type calcium channel alpha-1B subunit/Amyloid beta A4 precursor protein-binding family A member 1 (Homo sapiens, UniProt Q00975+Q02410). It is filed as protein assay.
T1 sequence (Q00975 whole entry): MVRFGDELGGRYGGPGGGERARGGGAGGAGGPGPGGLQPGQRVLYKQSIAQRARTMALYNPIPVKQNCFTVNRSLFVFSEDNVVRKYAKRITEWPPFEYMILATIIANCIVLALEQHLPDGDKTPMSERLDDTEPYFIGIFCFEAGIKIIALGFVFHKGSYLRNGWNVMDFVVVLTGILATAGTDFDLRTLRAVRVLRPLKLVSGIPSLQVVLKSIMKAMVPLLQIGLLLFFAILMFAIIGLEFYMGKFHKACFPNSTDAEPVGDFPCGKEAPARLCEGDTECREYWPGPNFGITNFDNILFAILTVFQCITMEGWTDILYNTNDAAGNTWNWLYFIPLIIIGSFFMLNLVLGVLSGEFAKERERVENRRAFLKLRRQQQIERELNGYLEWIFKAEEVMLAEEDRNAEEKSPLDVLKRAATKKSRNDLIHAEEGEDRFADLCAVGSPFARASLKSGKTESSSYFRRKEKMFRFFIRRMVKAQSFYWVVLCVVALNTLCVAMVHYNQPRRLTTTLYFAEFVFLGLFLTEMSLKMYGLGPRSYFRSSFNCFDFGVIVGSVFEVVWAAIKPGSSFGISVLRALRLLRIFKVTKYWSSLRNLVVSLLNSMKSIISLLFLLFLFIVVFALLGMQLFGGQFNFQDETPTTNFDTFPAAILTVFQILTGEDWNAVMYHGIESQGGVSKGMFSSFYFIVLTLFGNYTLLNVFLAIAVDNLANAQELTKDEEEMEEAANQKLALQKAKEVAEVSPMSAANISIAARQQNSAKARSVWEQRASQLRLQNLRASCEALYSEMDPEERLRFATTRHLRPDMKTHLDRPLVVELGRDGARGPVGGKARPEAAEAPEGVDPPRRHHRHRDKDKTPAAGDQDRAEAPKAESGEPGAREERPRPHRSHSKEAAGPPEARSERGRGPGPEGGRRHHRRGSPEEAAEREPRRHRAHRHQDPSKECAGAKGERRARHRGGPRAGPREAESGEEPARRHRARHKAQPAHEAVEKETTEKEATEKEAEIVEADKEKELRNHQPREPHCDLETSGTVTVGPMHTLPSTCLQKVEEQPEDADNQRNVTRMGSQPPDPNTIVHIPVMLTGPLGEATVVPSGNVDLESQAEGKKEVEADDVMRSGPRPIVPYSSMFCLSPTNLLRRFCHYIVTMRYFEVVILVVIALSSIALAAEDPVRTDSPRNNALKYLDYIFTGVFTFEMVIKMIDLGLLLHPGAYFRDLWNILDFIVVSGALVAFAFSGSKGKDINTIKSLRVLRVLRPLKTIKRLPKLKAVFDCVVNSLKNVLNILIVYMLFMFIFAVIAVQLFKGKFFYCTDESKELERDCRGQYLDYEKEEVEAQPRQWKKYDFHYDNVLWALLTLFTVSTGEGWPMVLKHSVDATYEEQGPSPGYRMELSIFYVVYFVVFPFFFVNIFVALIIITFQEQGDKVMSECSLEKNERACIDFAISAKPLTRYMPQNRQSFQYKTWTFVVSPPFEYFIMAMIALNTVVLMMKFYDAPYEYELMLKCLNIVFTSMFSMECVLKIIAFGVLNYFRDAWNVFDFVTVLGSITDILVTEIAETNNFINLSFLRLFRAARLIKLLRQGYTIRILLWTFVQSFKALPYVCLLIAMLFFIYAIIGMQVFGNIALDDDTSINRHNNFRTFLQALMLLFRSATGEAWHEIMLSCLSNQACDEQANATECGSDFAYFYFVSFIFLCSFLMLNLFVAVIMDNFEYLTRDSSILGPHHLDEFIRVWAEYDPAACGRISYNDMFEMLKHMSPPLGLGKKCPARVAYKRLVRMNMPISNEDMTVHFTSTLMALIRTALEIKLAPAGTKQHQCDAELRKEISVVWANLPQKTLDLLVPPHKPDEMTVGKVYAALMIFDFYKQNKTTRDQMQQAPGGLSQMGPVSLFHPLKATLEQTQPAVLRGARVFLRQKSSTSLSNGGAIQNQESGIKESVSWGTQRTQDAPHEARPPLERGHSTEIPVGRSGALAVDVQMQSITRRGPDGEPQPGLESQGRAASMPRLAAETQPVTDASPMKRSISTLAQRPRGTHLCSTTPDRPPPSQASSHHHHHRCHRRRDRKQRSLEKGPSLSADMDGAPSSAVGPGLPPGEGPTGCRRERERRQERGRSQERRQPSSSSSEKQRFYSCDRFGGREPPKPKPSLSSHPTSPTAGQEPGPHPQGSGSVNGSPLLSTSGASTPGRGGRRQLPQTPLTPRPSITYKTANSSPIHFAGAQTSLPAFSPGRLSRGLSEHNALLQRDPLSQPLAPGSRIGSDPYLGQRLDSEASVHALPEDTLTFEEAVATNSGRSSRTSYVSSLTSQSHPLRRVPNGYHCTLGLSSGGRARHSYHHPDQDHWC
T1 sequence (Q02410 whole entry): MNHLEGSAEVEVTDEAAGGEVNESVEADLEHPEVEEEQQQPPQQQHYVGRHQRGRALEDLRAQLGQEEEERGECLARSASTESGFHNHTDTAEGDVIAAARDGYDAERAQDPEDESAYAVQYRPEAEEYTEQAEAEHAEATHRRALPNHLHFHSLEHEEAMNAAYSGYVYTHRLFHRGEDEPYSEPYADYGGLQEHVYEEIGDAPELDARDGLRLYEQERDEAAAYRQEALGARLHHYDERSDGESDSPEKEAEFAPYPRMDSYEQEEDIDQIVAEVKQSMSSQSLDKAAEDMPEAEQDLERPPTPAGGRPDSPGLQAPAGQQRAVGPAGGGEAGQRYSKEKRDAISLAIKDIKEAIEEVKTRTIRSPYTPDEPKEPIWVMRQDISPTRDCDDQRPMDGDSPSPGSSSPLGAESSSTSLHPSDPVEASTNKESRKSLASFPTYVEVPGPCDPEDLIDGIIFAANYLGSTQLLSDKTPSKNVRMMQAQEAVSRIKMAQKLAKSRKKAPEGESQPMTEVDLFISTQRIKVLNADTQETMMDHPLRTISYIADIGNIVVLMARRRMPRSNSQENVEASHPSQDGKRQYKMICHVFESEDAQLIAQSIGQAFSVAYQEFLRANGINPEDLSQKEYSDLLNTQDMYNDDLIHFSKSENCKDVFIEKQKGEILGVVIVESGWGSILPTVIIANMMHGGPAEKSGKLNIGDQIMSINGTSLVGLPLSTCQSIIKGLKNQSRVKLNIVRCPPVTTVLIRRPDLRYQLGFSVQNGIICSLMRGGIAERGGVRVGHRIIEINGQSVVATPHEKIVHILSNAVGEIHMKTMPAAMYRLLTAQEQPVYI
The target of series [2] is T1, Voltage-gated N-type calcium channel alpha-1B subunit/Amyloid beta A4 precursor protein-binding family A member 1. It is filed as protein assay. This is another data set of the same source.
For series [3], the target named is T2, Long-chain-fatty-acid--AMP ligase FadD28 (Mycobacterium tuberculosis, UniProt P9WQ59).
T2 sequence (P9WQ59 whole entry): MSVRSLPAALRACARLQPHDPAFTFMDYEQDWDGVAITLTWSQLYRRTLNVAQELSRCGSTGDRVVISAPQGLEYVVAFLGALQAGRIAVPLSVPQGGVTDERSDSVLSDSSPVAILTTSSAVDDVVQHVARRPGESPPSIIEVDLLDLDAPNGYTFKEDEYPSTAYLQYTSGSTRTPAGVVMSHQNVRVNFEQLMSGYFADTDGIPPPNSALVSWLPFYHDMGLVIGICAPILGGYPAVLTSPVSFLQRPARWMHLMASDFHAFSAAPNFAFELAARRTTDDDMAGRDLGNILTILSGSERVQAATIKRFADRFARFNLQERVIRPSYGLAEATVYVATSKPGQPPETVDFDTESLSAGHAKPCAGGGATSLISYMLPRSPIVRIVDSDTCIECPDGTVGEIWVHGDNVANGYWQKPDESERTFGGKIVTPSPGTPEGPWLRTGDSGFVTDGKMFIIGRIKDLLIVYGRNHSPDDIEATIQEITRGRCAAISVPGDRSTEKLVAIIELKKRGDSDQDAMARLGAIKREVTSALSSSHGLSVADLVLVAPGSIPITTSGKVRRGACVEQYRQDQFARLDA
The series can be described thus: Fluorescence polarization aasay to screen for inhibitors that compete for the binding of FadD28 to a bisubstrate Measured in Biochemical System Using Plate Reader - 2147-01_Inhibitor_Dose_CherryPick_Activity. It is filed as functional, Mycobacterium tuberculosis H37Rv.

Series [4] has as its target T3, Short transient receptor potential channel 4 (Mus musculus, UniProt Q9QUQ5).
T3 sequence (Q9QUQ5 whole entry): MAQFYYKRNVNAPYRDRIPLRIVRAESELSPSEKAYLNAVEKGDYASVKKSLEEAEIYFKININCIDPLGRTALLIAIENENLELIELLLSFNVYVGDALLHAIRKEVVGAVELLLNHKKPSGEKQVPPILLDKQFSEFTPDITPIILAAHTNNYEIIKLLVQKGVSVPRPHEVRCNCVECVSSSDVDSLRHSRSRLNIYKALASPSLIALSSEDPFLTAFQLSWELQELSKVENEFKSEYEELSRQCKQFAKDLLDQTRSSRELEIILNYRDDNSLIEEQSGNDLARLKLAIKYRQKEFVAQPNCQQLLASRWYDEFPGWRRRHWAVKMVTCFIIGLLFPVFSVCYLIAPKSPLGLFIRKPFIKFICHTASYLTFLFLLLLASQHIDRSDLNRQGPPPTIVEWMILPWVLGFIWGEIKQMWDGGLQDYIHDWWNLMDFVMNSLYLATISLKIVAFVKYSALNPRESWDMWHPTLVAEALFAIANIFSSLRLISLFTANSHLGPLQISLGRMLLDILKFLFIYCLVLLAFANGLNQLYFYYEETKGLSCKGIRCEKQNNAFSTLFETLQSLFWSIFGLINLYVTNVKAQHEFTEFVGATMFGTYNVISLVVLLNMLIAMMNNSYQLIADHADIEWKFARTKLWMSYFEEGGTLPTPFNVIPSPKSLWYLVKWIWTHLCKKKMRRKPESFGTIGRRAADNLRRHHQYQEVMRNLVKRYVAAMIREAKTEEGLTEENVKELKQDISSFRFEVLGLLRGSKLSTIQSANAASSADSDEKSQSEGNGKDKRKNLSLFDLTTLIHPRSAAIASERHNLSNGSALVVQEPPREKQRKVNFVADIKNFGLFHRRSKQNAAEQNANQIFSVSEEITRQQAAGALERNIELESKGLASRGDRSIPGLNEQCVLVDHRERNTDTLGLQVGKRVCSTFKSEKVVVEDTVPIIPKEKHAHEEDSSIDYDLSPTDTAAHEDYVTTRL
Description: calcium entry via TRPC4 opening agents – cell-based, HEK293 TRPC4/mu-opioid, Fluo-4 calcium, dose response (AID 434937). It is filed as functional.

In the next series the target is Cytochrome P450 3A4 (Homo sapiens, UniProt P08684).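 Also: CYP3A4 tested as one member of a cytochrome P450 panel screen.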
Cytochrome P450 3A4, sequence (P08684 whole entry): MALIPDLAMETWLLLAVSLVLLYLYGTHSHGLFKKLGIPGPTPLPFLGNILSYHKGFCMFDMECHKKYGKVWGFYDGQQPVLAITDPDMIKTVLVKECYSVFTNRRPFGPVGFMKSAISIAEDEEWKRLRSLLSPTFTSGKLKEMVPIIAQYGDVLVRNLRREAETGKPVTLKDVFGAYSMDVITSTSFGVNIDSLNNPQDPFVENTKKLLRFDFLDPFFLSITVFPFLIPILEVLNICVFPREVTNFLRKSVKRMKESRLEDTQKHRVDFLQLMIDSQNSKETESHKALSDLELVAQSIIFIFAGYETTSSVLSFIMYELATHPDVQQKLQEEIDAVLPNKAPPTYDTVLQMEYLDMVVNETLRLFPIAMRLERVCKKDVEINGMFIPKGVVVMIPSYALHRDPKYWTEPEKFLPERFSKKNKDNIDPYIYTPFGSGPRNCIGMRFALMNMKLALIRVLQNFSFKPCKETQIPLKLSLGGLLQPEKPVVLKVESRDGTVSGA
The target of series [5] is Luciferin 4-monooxygenase (Photinus pyralis, UniProt P08659). The series can be described thus: inhibition of purified Photinus pyralis luciferase – biochemical, luminescence, dose response (AID 1891).
Luciferin 4-monooxygenase, sequence (P08659 whole entry): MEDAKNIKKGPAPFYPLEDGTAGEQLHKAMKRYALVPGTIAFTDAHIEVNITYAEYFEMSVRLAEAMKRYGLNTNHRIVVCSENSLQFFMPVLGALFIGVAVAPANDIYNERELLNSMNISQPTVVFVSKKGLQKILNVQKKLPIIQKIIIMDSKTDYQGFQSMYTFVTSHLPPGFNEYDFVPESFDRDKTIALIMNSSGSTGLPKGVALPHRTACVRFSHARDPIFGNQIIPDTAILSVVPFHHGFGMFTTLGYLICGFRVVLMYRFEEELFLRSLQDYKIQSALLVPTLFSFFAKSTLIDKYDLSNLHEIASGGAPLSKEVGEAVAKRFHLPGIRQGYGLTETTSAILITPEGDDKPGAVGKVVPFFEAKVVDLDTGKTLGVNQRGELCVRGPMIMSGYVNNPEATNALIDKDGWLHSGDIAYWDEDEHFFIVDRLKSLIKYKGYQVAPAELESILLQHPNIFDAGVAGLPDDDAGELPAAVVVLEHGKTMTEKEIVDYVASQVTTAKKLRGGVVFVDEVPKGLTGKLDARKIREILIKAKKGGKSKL
A short description of series [6]: Luminescence Cell-Based Dose Confirmation HTS to Identify Inhibitors of Platelet Dense Granule Release. [Related pubchem assays: 1663 (Primary HTS), 1678 (Summary of Project)]. It is filed as functional.
Another series has as its target Cytochrome P450 2C9 (Homo sapiens, UniProt P11712).
The target in another series is Cytochrome P450 2C19 (Homo sapiens, UniProt P33261). Description: Cytochrome panel assay with activity outcomes. Panel member name: p450-cyp2c19 Compounds with AC50 equal or less than 10 uM are considered active. It is filed as functional. The following applies: read-out: AC50.
A further series concerns Vero. Description: cells. Particulars: Chlorocebus sabaeus. It is filed as functional.
Series [7] has as its target Heat shock protein HSP 90-alpha (Homo sapiens, UniProt P07900). It is filed as functional, organism-based.
Series [8] addresses T4, Apoptotic protease-activating factor 1 (Homo sapiens, UniProt O14727).
T4 sequence (O14727 whole entry): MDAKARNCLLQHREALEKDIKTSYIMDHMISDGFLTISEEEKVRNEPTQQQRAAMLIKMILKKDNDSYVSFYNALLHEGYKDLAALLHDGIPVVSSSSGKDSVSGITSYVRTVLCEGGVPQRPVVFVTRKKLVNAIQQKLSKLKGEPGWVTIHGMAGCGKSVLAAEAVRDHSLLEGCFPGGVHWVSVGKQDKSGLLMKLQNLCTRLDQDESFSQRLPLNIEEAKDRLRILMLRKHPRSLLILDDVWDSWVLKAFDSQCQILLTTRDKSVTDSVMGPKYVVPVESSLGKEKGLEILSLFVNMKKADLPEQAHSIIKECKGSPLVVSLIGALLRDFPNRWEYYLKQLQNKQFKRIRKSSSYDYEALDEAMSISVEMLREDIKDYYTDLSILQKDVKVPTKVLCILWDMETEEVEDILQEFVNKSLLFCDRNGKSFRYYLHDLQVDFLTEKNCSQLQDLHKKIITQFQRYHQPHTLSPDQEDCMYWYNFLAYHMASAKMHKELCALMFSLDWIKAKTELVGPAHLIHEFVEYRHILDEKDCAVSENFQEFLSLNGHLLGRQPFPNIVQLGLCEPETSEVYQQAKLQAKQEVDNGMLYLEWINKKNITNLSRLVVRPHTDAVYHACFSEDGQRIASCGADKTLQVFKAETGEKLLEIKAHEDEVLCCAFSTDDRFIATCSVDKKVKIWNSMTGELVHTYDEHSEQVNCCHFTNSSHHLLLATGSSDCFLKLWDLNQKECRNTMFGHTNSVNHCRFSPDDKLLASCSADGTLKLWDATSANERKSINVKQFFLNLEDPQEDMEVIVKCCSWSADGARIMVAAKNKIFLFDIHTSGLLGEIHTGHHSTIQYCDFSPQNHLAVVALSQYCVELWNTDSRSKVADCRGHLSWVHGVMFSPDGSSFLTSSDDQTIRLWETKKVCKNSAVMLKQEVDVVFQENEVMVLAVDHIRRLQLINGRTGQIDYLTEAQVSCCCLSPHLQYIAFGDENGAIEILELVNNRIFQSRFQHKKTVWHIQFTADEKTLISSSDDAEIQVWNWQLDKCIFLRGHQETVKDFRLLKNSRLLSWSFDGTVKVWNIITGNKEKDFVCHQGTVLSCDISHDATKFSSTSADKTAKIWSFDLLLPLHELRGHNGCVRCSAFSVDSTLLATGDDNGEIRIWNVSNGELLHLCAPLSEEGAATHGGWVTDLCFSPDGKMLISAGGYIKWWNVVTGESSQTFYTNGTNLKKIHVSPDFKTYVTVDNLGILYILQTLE
It is filed as functional.

The target in a further series is Large T antigen (Simian virus 40, UniProt P03070). It is filed as functional, Betapolyomavirus macacae.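 Also: Confirmatory-stage PubChem screen for compounds that inhibit SV40 T antigen.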
In series [9] the target is T3, Short transient receptor potential channel 4. Description: block of DAMGO-driven TRPC4 calcium entry – cell-based, HEK293 TRPC4/mu-opioid, Fluo-4 calcium, dose response (AID 434942).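 Also: potency of inhibitors blocking the TRPC4 calcium response.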 It is filed as functional.
The test system of another series is INS1. The series can be described thus: INS-1E survival protection against cytokine death – cell-based, luminescence, retest, dose response (AID 449756).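 Also: cell death triggered by IL-1 beta plus TNF-alpha plus IFN-gamma mixture; protective hits raise ATP signal compared with cytokine alone wells.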 The following applies: Rattus norvegicus. It is filed as functional.
Series [10] is described as follows: reduction of Shn3 3'UTR-driven luciferase in osteoblasts – cell-based, Clone20 osteoblasts, firefly luciferase, cherry-picked, dose response (AID 624132).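 Also: firefly luciferase luminescence from reporter carrying the Shn3 3'UTR in osteoblasts.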 It is filed as functional.
Series [11] in a line: non-specific 3'UTR reporter inhibition in Clone20-Shn3RL – cell-based, Renilla luciferase, cherry-picked, counter-screen for Shn3 inhibitor project, dose response (AID 624133). It is filed as functional.
The nature of series [12]: loss of viability in HepG2 cells – cell-based, CellTiter-Glo, cherry-picked, cytotoxicity control for Shn3 inhibitor project, dose response (AID 624134). It is filed as functional.
The nature of series [13]: NIH3T3 cell viability loss – ATP luminescence, mouse fibroblasts, counter-screen, dose response (AID 2010).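 Also: cells exposed to compound for about 90 hours before reading.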 It is filed as functional, cell-based. A general note: Counterscreens check selectivity or assay interference.
Series [14] is described as follows: HEK-293T viability loss after treatment – luminescence, T-cell screen hits, cytotoxicity control for TCR NF-kB inhibitor project, dose response (AID 489026).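 Also: cells exposed to compound about 14 hours before the viability readout.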 It is filed as functional, cell-based.
A short description of series [15]: NIH-3T3 fibroblast cytotoxicity, dose response, cytotoxicity control, cell-based, fluorescence, Alamar Blue, secondary assay (AID 2327).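 Also: NIH-3T3 mouse fibroblasts cultured with fluconazole at 8 µg/mL.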 It is filed as functional. (The colour change of resazurin is a common sign of viable cells or microbes.)
Series [16] is described as follows: Trypanosoma cruzi growth suppression in host cells – NIH3T3 host cells, beta-gal luminescence, confirmation (AID 2044).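 Also: intracellular parasites grown in NIH/3T3 mouse fibroblasts as host cells; luminescent beta-galactosidase reporter signal from transgenic T. cruzi replicating inside host cells; inhibitors lower the luminescence signal.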 It is filed as functional, cell-based.
A short description of series [17]: fluconazole-exposed Candida albicans growth modulators – fluorescence, retest, confirmation (AID 2467). It is filed as functional, cell-based.

Cytochrome P450 2C9, sequence (P11712 whole entry): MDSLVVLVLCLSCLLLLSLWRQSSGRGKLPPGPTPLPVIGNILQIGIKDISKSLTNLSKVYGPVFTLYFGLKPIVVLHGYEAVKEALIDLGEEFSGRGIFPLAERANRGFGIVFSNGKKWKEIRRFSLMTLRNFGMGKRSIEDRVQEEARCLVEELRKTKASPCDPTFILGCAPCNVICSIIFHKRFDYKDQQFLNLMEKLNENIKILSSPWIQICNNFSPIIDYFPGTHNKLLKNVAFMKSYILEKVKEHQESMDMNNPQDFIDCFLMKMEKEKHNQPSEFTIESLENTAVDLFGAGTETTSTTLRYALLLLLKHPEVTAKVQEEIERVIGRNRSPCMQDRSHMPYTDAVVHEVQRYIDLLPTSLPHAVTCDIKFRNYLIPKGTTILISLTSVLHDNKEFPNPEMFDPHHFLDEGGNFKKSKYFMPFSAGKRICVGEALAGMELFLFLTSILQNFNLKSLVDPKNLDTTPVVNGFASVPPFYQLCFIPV

`COC(=O)c1cc(NC(=O)c2ccccc2)c(=O)oc1/C=C/Nc1ccc(Oc2ccccc2)cc1`: the IC50 is > 50 µM (inactive) in series [1] and 6.82 µM (active) in series [2]. For the same molecule, the AC50 in series [3] was 60.3 µM (active).

On to `CCN1CCCC1CNS(=O)(=O)c1c(C)cc(C)cc1C` (stereo not drawn), for which, in series [4], the EC50 is 3.35 µM (active).

With `COc1ccc(S(N)(=O)=O)cc1C(=O)NCCCN1CCN(c2cccc(Cl)c2)CC1.CS(=O)(=O)O`, the AC50 result on Cytochrome P450 3A4 is “inconclusive”; at Cytochrome P450 2C9, 100 nM (inconclusive); at Cytochrome P450 2C19 it was 14.1 µM (inconclusive). Further, the EC50 in series [5] is listed as > 112 µM (not active); in series [6], > 56.1 µM (not active).

Turning to `O=C(NCc1ccccc1)c1ccc2c(c1)C(=O)N(CC1CCCO1)C2=O` (stereo not drawn), the AC50 entry at Cytochrome P450 3A4 was “inconclusive”.

As for `Cn1cccc1C(=O)N1CCC2(CCN(C(=O)Nc3ccccc3)CC2)CC1`, the AC50 result on Cytochrome P450 3A4 is recorded as “inconclusive”.

Take `NCCSc1c(-c2ccc(Cl)cc2)[nH]c2ccccc12`: the EC50 in [4] is 4.73 µM (active). The CC50 in the series with Vero was > 25 µM (active).

Turning to `Cc1cc(C)c2c(N=NN3CCCCC3)[nH]nc2n1`, in series [7], the AC50 is 4.01 µM (active).

With `COc1cc(-c2c(C#N)c(O)nc3c2c(C)nn3-c2ccccc2)ccc1O`, the IC50 in series [8] is 20.5 µM (active); on Large T antigen it was > 100 µM (active).

As for `Cc1ccc(NC(=O)CCN2CCC(Cc3ccccc3)CC2)cc1`, in series [4], the EC50 is 0.0667 µM (active).

Take `Cc1ccc(COn2c(-c3ccc(Cl)cc3Cl)nc3ncccc32)cc1`: the EC50 in series [4] is 0.749 µM (active); in series [9], 0.473 µM (active).

`CC(Oc1cccc(Cl)c1)C(=O)Nc1cc(S(=O)(=O)N2CCOCC2)ccc1N1CCCCC1` (stereo not drawn): the IC50 in series [8] was 74.9 µM (active). The AC50 in the series on INS1 was 5.41 µM (active).

For `CC(=O)O[C@]1(C(C)=O)CC[C@@H]2[C@@H]3C=C(Cl)C4=CC(=O)[C@H]5C[C@@H]5[C@]4(C)[C@H]3CC[C@]21C`, the AC50 entry at Cytochrome P450 3A4 was “inconclusive”; on Cytochrome P450 2C9, 15.8 µM (inconclusive) and 31.6 µM (inconclusive).

Take `O=C(OCc1ccccc1)c1ccc(NCc2cc(O)ccc2O)cc1`: the AC50 in [7] was 8.63 µM (active); in series [10], 0.711 µM (active); in series [11], 3.87 µM (active); in [12], 22 µM (active).

Consider `CCCCCCCn1c2c(c(=N)c3ccccc31)CCC2`, for which the EC50 in “cells” was < 0.004 µM (active); in [13], 25.2 µM (active); in series [15], > 160 µM (inactive); in [16], < 0.1 µM (active); in series [17], 4.4 µM (active). The IC50 in series [14] is 72.2 µM (inactive).
